Source: PubChem BioAssay (NCI)
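Cultured in 96-well plates, cells were exposed to test compound for 48 hours across five concentrations. The concentration for full growth arrest is given as TGI.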

Key:
Assay in all cases: NCI tumour cell line growth inhibition, 48 h
786-0 renal = system: 786-0 renal
A498 renal = system: A498 renal
A549 NSCLC = system: A549 NSCLC
ACHN renal = system: ACHN renal
CAKI-1 renal = system: CAKI-1 renal
COLO 205 colon = system: COLO 205 colon
DLD-1 colon = system: DLD-1 colon
DMS 273 small cell lung = system: DMS 273 small cell lung
EKVX NSCLC = system: EKVX NSCLC
HCC-2998 colon = system: HCC-2998 colon
HCT-116 colon = system: HCT-116 colon
HCT-15 colon = system: HCT-15 colon
HL-60(TB) leukemia = system: HL-60(TB) leukemia
HOP-62 NSCLC = system: HOP-62 NSCLC
HOP-92 NSCLC = system: HOP-92 NSCLC
HT29 colon = system: HT29 colon
IGROV1 ovarian = system: IGROV1 ovarian
K-562 leukemia = system: K-562 leukemia
KM12 colon = system: KM12 colon
KM20L2 colon = system: KM20L2 colon
LOX IMVI melanoma = system: LOX IMVI melanoma
LXFL 529 NSCLC = system: LXFL 529 NSCLC
M14 melanoma = system: M14 melanoma
M19-MEL melanoma = system: M19-MEL melanoma
MALME-3M melanoma = system: MALME-3M melanoma
MOLT-4 leukemia = system: MOLT-4 leukemia
NCI-H226 lung = system: NCI-H226 lung
NCI-H23 lung = system: NCI-H23 lung
NCI-H460 lung = system: NCI-H460 lung
NCI-H522 lung = system: NCI-H522 lung
OVCAR-3 ovarian = system: OVCAR-3 ovarian
OVCAR-4 ovarian = system: OVCAR-4 ovarian
OVCAR-5 ovarian = system: OVCAR-5 ovarian
OVCAR-8 ovarian = system: OVCAR-8 ovarian
RPMI-8226 leukemia = system: RPMI-8226 leukemia
RXF-631 renal = system: RXF-631 renal
SF-268 CNS = system: SF-268 CNS
SF-295 CNS = system: SF-295 CNS
SF-539 CNS = system: SF-539 CNS
SK-MEL-2 melanoma = system: SK-MEL-2 melanoma
SK-MEL-28 melanoma = system: SK-MEL-28 melanoma
SK-MEL-5 melanoma = system: SK-MEL-5 melanoma
SK-OV-3 ovarian = system: SK-OV-3 ovarian
SN12C renal = system: SN12C renal
SNB-19 CNS = system: SNB-19 CNS
SNB-75 CNS = system: SNB-75 CNS
SNB-78 CNS = system: SNB-78 CNS
SR leukemia = system: SR leukemia
SW-620 colon = system: SW-620 colon
TK-10 renal = system: TK-10 renal
U251 CNS = system: U251 CNS
UACC-257 melanoma = system: UACC-257 melanoma
UACC-62 melanoma = system: UACC-62 melanoma
UO-31 renal = system: UO-31 renal

CC(/C=C/NNC1=NC(c2ccccc2)C(c2ccccc2)=NN1)Sc1ccccc1N (centres undefined) gave a TGI (786-0 renal) of 13.6 µM, a TGI (A498 renal) of 26.6 µM and a TGI (A549 NSCLC) of 28.7 µM. For the same compound, the TGI (ACHN renal) was 22.2 µM, the TGI (CAKI-1 renal) was 28 µM and the TGI (COLO 205 colon) was 31 µM. For the same compound, the TGI (DLD-1 colon) was 21.7 µM, the TGI (DMS 273 small cell lung) was 22.9 µM and the TGI (EKVX NSCLC) was 32.8 µM. It also gave a TGI (HCC-2998 colon) of 29.9 µM, a TGI (HCT-116 colon) of 21.8 µM and a TGI (HCT-15 colon) of 19.8 µM. The TGI (HL-60(TB) leukemia) was 6.45 µM, the TGI (HOP-62 NSCLC) was 33.7 µM and the TGI (HOP-92 NSCLC) was 22.8 µM. The TGI (HT29 colon) was 23.9 µM, the TGI (IGROV1 ovarian) was 30 µM and the TGI (K-562 leukemia) was greater than 100 µM. The TGI (KM12 colon) was 21.8 µM, the TGI (KM20L2 colon) was 23.2 µM and the TGI (LOX IMVI melanoma) was 11.4 µM. The TGI (LXFL 529 NSCLC) was 15.5 µM, the TGI (M14 melanoma) was 10.6 µM and the TGI (M19-MEL melanoma) was 28.9 µM. For the same compound, the TGI (MALME-3M melanoma) was 20.9 µM, the TGI (MOLT-4 leukemia) was 34 µM and the TGI (NCI-H226 lung) was 24.3 µM. The TGI (NCI-H23 lung) was 29.7 µM, the TGI (NCI-H460 lung) was 24.9 µM and the TGI (NCI-H522 lung) was 11.7 µM. It also gave a TGI (OVCAR-3 ovarian) of 22 µM, a TGI (OVCAR-4 ovarian) of 20 µM and a TGI (OVCAR-5 ovarian) of 31.3 µM. The TGI (OVCAR-8 ovarian) was 19.5 µM, the TGI (RPMI-8226 leukemia) was greater than 100 µM and the TGI (RXF-631 renal) was 38.7 µM. For the same compound, the TGI (SF-268 CNS) was 16 µM, the TGI (SF-295 CNS) was 22.4 µM and the TGI (SF-539 CNS) was 20.9 µM. The TGI (SK-MEL-2 melanoma) was 21.2 µM, the TGI (SK-MEL-28 melanoma) was 21.3 µM and the TGI (SK-MEL-5 melanoma) was 23.6 µM. It also gave a TGI (SK-OV-3 ovarian) of 31 µM, a TGI (SN12C renal) of 18.2 µM and a TGI (SNB-19 CNS) of 25.1 µM. The TGI (SNB-75 CNS) was 14 µM, the TGI (SNB-78 CNS) was 67.9 µM and the TGI (SR leukemia) was 21 µM. The TGI (SW-620 colon) was 7.75 µM, the TGI (TK-10 renal) was 27.2 µM and the TGI (U251 CNS) was 8.39 µM. The TGI (UACC-257 melanoma) was 19.9 µM, the TGI (UACC-62 melanoma) was 10.8 µM and the TGI (UO-31 renal) was 20.1 µM.
